{"source": "paper PMC2959089", "about": "“The intriguing Cyclophilin A-HIV-1 Vpr interaction: prolyl cis/trans isomerisation catalysis and specific binding” (BMC Structural Biology, 2010)", "key": {"CypA [1]": {"target": "T1, CypA (Homo sapiens, UniProt P62937)", "T1 construct": "made in house; host or cells: E. coli BL21(DE3)", "T1 sequence (P62937 whole entry)": "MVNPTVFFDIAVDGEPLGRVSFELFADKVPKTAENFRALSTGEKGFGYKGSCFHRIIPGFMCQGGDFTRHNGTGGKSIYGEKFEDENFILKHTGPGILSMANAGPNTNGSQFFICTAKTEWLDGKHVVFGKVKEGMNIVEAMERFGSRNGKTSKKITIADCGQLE", "test": "biochemical", "format": "binding", "details": "for kon: pH 7.4, read-out: ka1 (association rate constant), two state reaction model; for koff: pH 7.4, read-out: kd1 (dissociation rate constant), two state reaction model", "method": "The two-state binding model, also called the conformational change model, is based on a 1:1 binding of an analyte to the immobilized ligand followed by a conformational change in the complex. This model should be regarded as indicative, rather than as direct evidence, for a conformational change upon binding. […] From the two-state binding model the association rate (ka1), dissociation rate (kd1), forward rate (ka2) and backward rate (kd2) constants were calculated, and subsequently the magnitude of the dissociation constants (KD) could be calculated ([…] (Table 1).\n(§1) SPR measurements were performed at 25°C on a Biacore T100 instrument (Biacore AB, Uppsala, Sweden) equipped with a CM5 research-grade sensor chip. CypA was immobilized in FC 2 and FC 4 to 180 and 918 RU (response units) respectively, using standard amine-coupling chemistry in two flow cells. FC 1 and FC 3 were treated according to FC 2 and FC 4 except for CypA immobilisation and functioned as reference cells. The synthetic Vpr peptides sVpr^1-20, sVpr^21-40, sVpr^25-40, sVpr^30-40, sVpr^32-38 and sVpr^33-37 were dissolved at four concentrations ranging from 50 to 400 μM in the running buffer (HBS-P buffer pH 7.4). […] The samples were injected over the flow cells at a flow rate of 30 μl/min. Data were collected at 2.5 Hz during the 60 s association and 120 s dissociation phase, and were automatically corrected for bulk buffer effects and unspecific binding of Vpr peptides to the chip matrix.\nAffinity, association and dissociation rate constants were obtained from sensograms by the Biacore T100 evaluation software version 2.0.1 in accordance with the global curve fit model. Sensorgram data for the four different concentrations were fitted to several binding models including 1:1 (Langmuir) binding model (A+B ↔ AB), two-state reaction (conformational change) model (A+B ↔ AB ↔ AB*) and heterogeneous ligand model (interaction one: A+B1 ↔ AB1; interaction two: A+B2 ↔ AB2). Kinetic constants were calculated for the best fitted model."}, "HIV": {"tested_on": "HIV", "details": "specific inhibitors of the prolyl cis/trans isomerase activity of CypA; cited from earlier work", "from_the_text": "The interaction of HIV-1 Vpr with CypA is known to occur in vitro and in vivo [9-11]. […] Nonetheless, spe ..."}, "CypA [2]": {"target": "T1, CypA", "test": "2D 1H NOESY/ROESY NMR exchange spectroscopy of CypA prolyl cis/trans isomerase activity on sVpr peptides and its inhibition by cyclosporine A", "format": "biochemical", "details": "excess cyclosporine A (0.1 mg in 5 μl DMSO-d6) added after CypA", "method": "After acquisition of 1 D ^1H and 2D ^1H TOCSY, NOESY and ROESY NMR spectra of pure sVpr^1-20 and sVpr^21-40, 50-100 μl 0.11 mM CypA dissolved in aqueous Tris buffer at pH 7 was added to the individual peptide solutions, followed by acquisition of identical series of NMR spectra (1 D ^1H and 2D ^1H TOCSY, NOESY and ROESY) to those of the pure peptides. Exchange peaks occurring in the spectra after addition of CypA were identified by supposition of analogous NOESY and/or ROESY spectra prior to and after addition of CypA using Bruker Topspin 1.3 software.\nThe catalytic prolyl cis/trans isomerase interactions of CypA with sVpr^1-20 and sVpr^21-40 was inhibited by addition of excessive amounts of cyclosporine A dissolved in 5 μl deuterated dimethylsulfoxide (DMSO-d6)."}, "[3]": {"test": "Solubility of sVpr peptides in aqueous buffer (observation during SPR sample preparation)", "format": "physicochemical", "details": "for Solubility in SPR running buffer: HBS-P buffer pH 7.4, dissolved at 25-200 μM instead of 50-400 μM", "method": "as §1"}}, "note": "No end group written: not given here."}
{"compound": "CC[C@H](C)[C@H](NC(=O)[C@H](CCCNC(=N)N)NC(=O)[C@@H]1CCCN1C(=O)[C@H](Cc1ccccc1)NC(=O)[C@H](Cc1c[nH]cn1)NC(=O)[C@H](CCCNC(=N)N)NC(=O)[C@@H](NC(=O)[C@H](C)N)C(C)C)C(=O)N[C@@H](Cc1c[nH]c2ccccc12)C(=O)N[C@@H](CC(C)C)C(=O)N[C@@H](Cc1c[nH]cn1)C(=O)O", "note": "[sVpr^30-40]", "values": [{"measurement": "kon", "setting": "CypA [1]", "value": 2470, "unit": "M⁻¹ s⁻¹"}, {"measurement": "koff", "setting": "CypA [1]", "value": 0.527, "unit": "s⁻¹"}]}
{"compound": "HFPRI [sVpr^33-37]", "values": [{"measurement": "kon", "setting": "CypA [1]", "value": 120, "unit": "M⁻¹ s⁻¹"}, {"measurement": "koff", "setting": "CypA [1]", "value": 0.66, "unit": "s⁻¹"}]}
{"compound": "cyclosporine A", "values": [{"measurement": "Inhibition of HIV replication", "setting": "HIV", "value": "inhibit HIV replication"}, {"measurement": "Inhibition of CypA prolyl cis/trans isomerase activity (exchange crosspeaks after addition of inhibitor)", "setting": "CypA [2]; substrate sVpr1-20", "value": "disappearance of the prolyl cis/trans exchange crosspeaks"}, {"measurement": "Inhibition of CypA prolyl cis/trans isomerase activity (exchange crosspeaks after addition of inhibitor)", "setting": "CypA [2]; substrate sVpr21-40", "value": "prolyl cis/trans exchange crosspeaks disappeared"}]}
{"compound": "CC[C@H](C)[C@H](NC(=O)[C@H](CCCNC(=N)N)NC(=O)[C@@H]1CCCN1C(=O)[C@H](Cc1ccccc1)NC(=O)[C@H](Cc1c[nH]cn1)NC(=O)[C@H](CCCNC(=N)N)NC(=O)[C@@H](NC(=O)[C@H](C)NC(=O)[C@H](CCC(=O)O)NC(=O)[C@H](CO)NC(=O)[C@H](CCCCN)NC(=O)[C@H](CC(C)C)NC(=O)[C@@H](N)CCC(=O)O)C(C)C)C(=O)N[C@@H](Cc1c[nH]c2ccccc12)C(=O)N[C@@H](CC(C)C)C(=O)N[C@@H](Cc1c[nH]cn1)C(=O)O", "note": "[sVpr^25-40]", "values": [{"measurement": "kon", "setting": "CypA [1]", "value": 2000, "unit": "M⁻¹ s⁻¹"}, {"measurement": "koff", "setting": "CypA [1]", "value": 0.942, "unit": "s⁻¹"}]}
{"compound": "CC[C@H](C)[C@H](NC(=O)[C@H](CCCNC(=N)N)NC(=O)[C@@H]1CCCN1C(=O)[C@H](Cc1ccccc1)NC(=O)[C@H](Cc1c[nH]cn1)NC(=O)[C@H](CCCNC(=N)N)NC(=O)[C@@H](NC(=O)[C@H](C)NC(=O)[C@H](CCC(=O)O)NC(=O)[C@H](CO)NC(=O)[C@H](CCCCN)NC(=O)[C@H](CC(C)C)NC(=O)[C@H](CCC(=O)O)NC(=O)[C@H](CCC(=O)O)NC(=O)[C@H](CC(C)C)NC(=O)[C@H](CC(C)C)NC(=O)[C@@H](N)CCC(=O)O)C(C)C)C(=O)N[C@@H](Cc1c[nH]c2ccccc12)C(=O)N[C@@H](CC(C)C)C(=O)N[C@@H](Cc1c[nH]cn1)C(=O)O", "note": "[sVpr^21-40]", "values": [{"measurement": "kon", "setting": "CypA [1]", "value": 466, "unit": "M⁻¹ s⁻¹"}, {"measurement": "koff", "setting": "CypA [1]", "value": 0.164, "unit": "s⁻¹"}]}
{"compound": "CC[C@H](C)[C@H](NC(=O)[C@H](CCCNC(=N)N)NC(=O)[C@@H]1CCCN1C(=O)[C@H](Cc1ccccc1)NC(=O)[C@H](Cc1c[nH]cn1)NC(=O)[C@H](CCCNC(=N)N)NC(=O)[C@@H](NC(=O)[C@H](C)NC(=O)[C@H](CCC(=O)O)NC(=O)[C@H](CO)NC(=O)[C@H](CCCCN)NC(=O)[C@H](CC(C)C)NC(=O)[C@H](CCC(=O)O)NC(=O)[C@H](CCC(=O)O)NC(=O)[C@H](CC(C)C)NC(=O)[C@H](CC(C)C)NC(=O)[C@H](CCC(=O)O)NC(=O)[C@H](CC(C)C)NC(=O)[C@@H](NC(=O)[C@@H](NC(=O)[C@H](Cc1c[nH]c2ccccc12)NC(=O)[C@H](CCC(=O)O)NC(=O)[C@H](CC(N)=O)NC(=O)[C@H](Cc1ccc(O)cc1)NC(=O)[C@@H]1CCCN1C(=O)[C@H](CCC(=O)O)NC(=O)[C@H](CCCNC(=N)N)NC(=O)[C@H](CCC(N)=O)NC(=O)[C@@H]1CCCN1C(=O)CNC(=O)[C@H](CCC(N)=O)NC(=O)[C@H](CC(=O)O)NC(=O)[C@H](CCC(=O)O)NC(=O)[C@@H]1CCCN1C(=O)[C@H](C)NC(=O)[C@H](CCC(N)=O)NC(=O)[C@H](CCC(=O)O)NC(=O)[C@@H](N)CCSC)[C@@H](C)O)[C@@H](C)O)C(C)C)C(=O)N[C@@H](Cc1c[nH]c2ccccc12)C(=O)N[C@@H](CC(C)C)C(=O)N[C@@H](Cc1c[nH]cn1)C(=O)O", "note": "[sVpr^1-40]", "values": [{"measurement": "Solubility in SPR running buffer", "setting": "[3]", "value": "restricted solubility"}, {"measurement": "Kd", "setting": "CypA [1]", "value": 284, "unit": "µM"}, {"measurement": "kon", "setting": "CypA [1]", "value": 752, "unit": "M⁻¹ s⁻¹"}, {"measurement": "koff", "setting": "CypA [1]", "value": 0.37, "unit": "s⁻¹"}]}
{"compound": "CC[C@H](C)[C@H](NC(=O)[C@H](CCCNC(=N)N)NC(=O)[C@@H]1CCCN1C(=O)[C@H](Cc1ccccc1)NC(=O)[C@H](Cc1c[nH]cn1)NC(=O)[C@H](CCCNC(=N)N)NC(=O)[C@@H](NC(=O)[C@H](C)NC(=O)[C@H](CCC(=O)O)NC(=O)[C@H](CO)NC(=O)[C@H](CCCCN)NC(=O)[C@H](CC(C)C)NC(=O)[C@H](CCC(=O)O)NC(=O)[C@H](CCC(=O)O)NC(=O)[C@H](CC(C)C)NC(=O)[C@H](CC(C)C)NC(=O)[C@H](CCC(=O)O)NC(=O)[C@H](CC(C)C)NC(=O)[C@@H](NC(=O)[C@@H](NC(=O)[C@H](Cc1c[nH]c2ccccc12)NC(=O)[C@H](CCC(=O)O)NC(=O)[C@H](CC(N)=O)NC(=O)[C@H](Cc1ccc(O)cc1)NC(=O)[C@H](CC(N)=O)NC(=O)[C@H](CCC(=O)O)NC(=O)[C@H](CCCNC(=N)N)NC(=O)[C@H](CCC(N)=O)NC(=O)[C@H](CC(N)=O)NC(=O)CNC(=O)[C@H](CCC(N)=O)NC(=O)[C@H](CC(=O)O)NC(=O)[C@H](CCC(=O)O)NC(=O)[C@H](CC(N)=O)NC(=O)[C@H](C)NC(=O)[C@H](CCC(N)=O)NC(=O)[C@H](CCC(=O)O)NC(=O)[C@@H](N)CCSC)[C@@H](C)O)[C@@H](C)O)C(C)C)C(=O)N[C@@H](Cc1c[nH]c2ccccc12)C(=O)N[C@@H](CC(C)C)C(=O)N[C@@H](Cc1c[nH]cn1)C(=O)O", "note": "[sVpr^1-40 P5,10,14 N]", "values": [{"measurement": "Solubility in SPR running buffer", "setting": "[3]", "value": "restricted solubility"}, {"measurement": "Solubility in aqueous buffer solution", "setting": "[3]; aqueous buffer solution at pH 7, offered as possible reason for unreliable KD", "value": "relatively poor solubility"}, {"measurement": "kon", "setting": "CypA [1]", "value": 46, "unit": "M⁻¹ s⁻¹"}, {"measurement": "koff", "setting": "CypA [1]", "value": 0.56, "unit": "s⁻¹"}]}
{"compound": "RHFPRIW [sVpr^32-38]", "values": [{"measurement": "kon", "setting": "CypA [1]", "value": 924, "unit": "M⁻¹ s⁻¹"}, {"measurement": "koff", "setting": "CypA [1]", "value": 0.67, "unit": "s⁻¹"}]}
